Assay results published in US11266145B2, “Compositions comprising protocatechuic acid and methods of use” (priority 2020, dated 2022).
Where “and” joins values, the source holds several entries; their conditions need not be identical. Equal values may be shown once.

Tests used:
[1] = tested on: 2019 Novel Coronavirus, Isolate USA-WA1/2020 (SARS-CoV-2); assay: TCID50 test of SARS-CoV-2 recovered from PCA-coated test substrates (plastic, cloth, mesh), titrated on Vero E6 cells; type: cell-based; details: for log difference: versus virus control on substrate; for TCID50 Log10/mL: single replicates
Description: The Test Article (TA) used for this study was Protocatechuic Acid (PCA). The TA was received as an off-white powder. The PCA solution was prepared to be 30% PCA w/v in Ethanol. The PCA was prepared in 5 g increments to pre-warmed 50-60 mL ethanol until dissolved for a total of 30 g PCA in the solution. Additional ethanol was then added volumetrically to be equivalent to 100 mL.
The Test Substrates (TS) were a Plastic-type material sourced from a clear plastic laboratory bottle (Corning 431731 Octagonal bottle, 150 mL), cloth (the top layer of a N95 mask [3M 8210]), and a Sponsor-provided wire mesh to serve as a substrate for the TA. All test substrates were cut to approximately 1″×1″ in size. The test substrates were submerged into the PCA solution and dried horizontally to allow for even coating. After the substrate was thoroughly dried, the test substrate was re-submerged into the PCA solution for an additional coating.
The Test Virus used for this study was 2019 Novel Coronavirus, Isolate USA-WA1/2020 (SARS-CoV-2). The virus was stored at approximately […] prior to use. The multiplicity of infection (MOI) was 0.01 TCID50/cell.
The Cell Culture used for the TCID50 test was African Green Monkey Kidney Cells (Vero E6 cells) that were maintained in Dulbecco's […] with 10% fetal calf serum (DMEM-2). All growth media contained heat-inactivated fetal calf serum and antibiotics.
The test design is shown below in Table 1.
The Test Substrate was coated with PCA as described above. The test substrates was treated with PCA twice and allowed to fully dry overnight. In general, the time from the first coat to the next day's virus exposure was approximately 24 hours.
The treated Test Substrate plus TA was placed into a sterile 6 well cell culture plate and approximately 100 μL total of a ≤1×10^6 TCID50/mL SARS-CoV-2 virus was such that 50 μL of virus was layered on each sides of the treated test substrates. This was the procedure used for the initial Day 1 experiment.
For the confirmatory test, in an attempt to increase the recorded titer of the controls, the treated Test Substrate plus TA was placed into a sterile 6 well cell culture plate and the same amount of virus was layered onto both sides of the test substrate. However, an addition 50 μL of DMEM was added to each side to reduce the inactivation of the virus due to desiccation. Additionally, a glass coverslip was also added to help mitigate against evaporation.
After application of the virus, the virus was contact with the Test substrates for approximately 10 minutes (Groups 1, 2, and 3, Control groups 7, 8, and 9), 60 minutes (Groups 4, 5, and 6, Control Groups 10, 11, and 12). Each substrate per time per test article was performed in duplicate.
A cell culture-only control was included to indicate that cells without any TA or virus remain healthy throughout the assay. Virus-only controls without substrate was added for each timepoint to verify that the assay was performing as expected.
After the incubation time, the treated substrate was washed with 1 mL of cell culture media (DMEM-2) for approximately 5-10 minutes within the 6 well cell culture plate and the glass cover slip removed if necessary. This was the equivalent to a 10-fold dilution. The plate was gently stirred via an orbital shaker to enhance the recovery of the virus.
For the TCID50, the cell culture media (DMEM-2) used to wash the Test Substrate was serially diluted 10 fold and transferred into respective wells of a 96-well plate which contained a monolayer of African Green Monkey Kidney Cells (Vero E6 cells) for titration. The TCID50 assay was performed non-GLP according to IITRI Standard Operating Procedures for the assay. The TCID50 titers was calculated using the method of Reed-Meunch.

[2] = cited from earlier work
[3] = tested on: SARS CoV-2 virus; assay: Second laboratory coupon test: virus dried on PCA-coated coupons (stainless steel, K95 mask, plastic), recovered and titrated on Vero E6 cells by CPE; type: cell-based; design: : unit not given here; details: for Average Log10 TCID50 / Average TCID50: 3 replicates; for  / Log10 TCID50 / TCID50: single replicates; for TCID50: virus dried 45 minutes-1 h
Description: The second laboratory utilized test coupons made of solid stainless steel, plastic and K95 mask were coated in 30% w/v PCA in 70% ethanol. Each coupon was dipped in PCA, allowed to dry, dipped again and allowed to dry with the opposite side of the coupon facing up. Once dry, 200 ul virus was added to each coupon and allowed to dry (45 minutes-1 h drying time). Virus was recovered by adding 2 ml DMEM/F12 media and washing the coupon, without scraping so as not to dislodge PCA crystals. A yellow color change in the media was observed indicating acidification of the media upon addition to the PA-coated coupon. The recovered virus was added to empty 96 well plates and diluted 1:10 down the plate. This was then added to Vero E6 cells that had grown to ˜70% confluence. Cytotoxicity controls without virus and recovery controls without PCA were also done in the same manner. After addition to the cells, plates were read at day 4 for the presence of cytopathic effect (CPE) due to viral infection of cells. Note that cytotoxicity and CPE cannot be differentiated in this assay, thus any dead cells are marked as positive.
Cytotoxicity was seen up to 1:100 dilution for the K95, and 1:10 for the stainless steel and plastic coupons. […] The SS=stainless steel, K95=K95 mask and P=plastic. +PCA means coupons coated with PCA. No PCA (e.g. SS-1) indicates virus recovery controls with no PCA coating that had virus dried and recovered.

[4] = in vivo; cited from earlier work
[5] = confirmatory run (Day 2), PCA on cloth, 10 min
[6] = confirmatory run (Day 2), PCA on cloth, 60 min
[7] = confirmatory run (Day 2), PCA on mesh, 10 min
[8] = confirmatory run (Day 2), PCA on mesh, 60 min
[9] = confirmatory run (Day 2), PCA on plastic, 10 min
[10] = confirmatory run (Day 2), PCA on plastic, 60 min
[11] = initial run (Day 1), PCA on cloth, 60 min incubation
[12] = initial run (Day 1), PCA on mesh, 60 min incubation
[13] = initial run (Day 1), PCA on plastic, 10 min incubation
[14] = initial run (Day 1), PCA on plastic, 60 min incubation
[15] = K95 mask coupon coated with PCA versus uncoated coupon
[16] = K95 mask coupon coated with PCA
[17] = plastic coupon coated with PCA versus uncoated coupon
[18] = stainless steel coupon coated with PCA versus uncoated coupon
[19] = stainless steel coupon coated with PCA

O=C(O)c1ccc(O)c(O)c1 [PCA, Protocatechuic acid] showed a Log average [1, 5] of 4.25 TCID50 Log10/mL, a log difference [1, 5] of −1.13 log and a Log average [1, 6] of 2.75 TCID50 Log10/mL. For the same compound, the log difference [1, 6] was −2.38 log, the Log average [1, 7] was 4.63 TCID50 Log10/mL and the log difference [1, 7] was −1.13 log. The Log average [1, 8] was 4.38 TCID50 Log10/mL, the log difference [1, 8] was −0.88 log and the Log average [1, 9] was 4.38 TCID50 Log10/mL. For the same compound, the log difference [1, 9] was −1.13 log, the Log average [1, 10] was 3.63 TCID50 Log10/mL and the log difference [1, 10] was −1.50 log. The “TCID50 Log10/mL” value ([1]; confirmatory run (Day 2, extra DMEM and coverslip), PCA on cloth, 10 min) was 4.25 TCID50 Log10/mL, the “TCID50 Log10/mL” value ([1]; confirmatory run (Day 2, extra DMEM and coverslip), PCA on cloth, 60 min) was 2.00 TCID50 Log10/mL and 3.50 TCID50 Log10/mL and the “TCID50 Log10/mL” value ([1]; confirmatory run (Day 2, extra DMEM and coverslip), PCA on mesh, 10 min) was 4.75 TCID50 Log10/mL and 4.50 TCID50 Log10/mL. The “TCID50 Log10/mL” value ([1]; confirmatory run (Day 2, extra DMEM and coverslip), PCA on mesh, 60 min) was 4.50 TCID50 Log10/mL and 4.25 TCID50 Log10/mL, the “TCID50 Log10/mL” value ([1]; confirmatory run (Day 2, extra DMEM and coverslip), PCA on plastic, 10 min) was 4.25 TCID50 Log10/mL and 4.50 TCID50 Log10/mL and the “TCID50 Log10/mL” value ([1]; confirmatory run (Day 2, extra DMEM and coverslip), PCA on plastic, 60 min) was 3.50 TCID50 Log10/mL and 3.75 TCID50 Log10/mL. For the same compound, the “virucidal effect on the SARS CoV2 virus” value ([1]; in 10 minutes, virus droplet on PCA coating, aqueous environment) was “virucidal effect”, the “TCID50 Log10/mL” value ([1]; initial run (Day 1), PCA on cloth (N95 top layer), 10 min incubation) was 2.75 TCID50 Log10/mL and the log difference ([1]; initial run (Day 1), PCA on cloth, 10 min) was −1.25 log. For the same compound, the Log average ([1]; initial run (Day 1), PCA on cloth, 10 min incubation) was 2.75 TCID50 Log10/mL, the log difference ([1]; initial run (Day 1), PCA on cloth, 60 min) was −1.00 log and the Log average [1, 11] was 2.75 TCID50 Log10/mL. For the same compound, the “TCID50 Log10/mL” value [1, 11] was 2.50 TCID50 Log10/mL and 3.00 TCID50 Log10/mL, the log difference ([1]; initial run (Day 1), PCA on mesh, 10 min) was −0.25 log and the Log average ([1]; initial run (Day 1), PCA on mesh, 10 min incubation) was 3.38 TCID50 Log10/mL. The log difference ([1]; initial run (Day 1), PCA on mesh, 60 min) was −2.00 log, the Log average [1, 12] was 1.50 TCID50 Log10/mL and the “TCID50 Log10/mL” value [1, 12] was 1.00 TCID50 Log10/mL and 2.00 TCID50 Log10/mL. The log difference ([1]; initial run (Day 1), PCA on plastic, 10 min) was −0.63 log, the Log average [1, 13] was 3.75 TCID50 Log10/mL and the “TCID50 Log10/mL” value [1, 13] was 3.75 TCID50 Log10/mL. For the same compound, the log difference ([1]; initial run (Day 1), PCA on plastic, 60 min) was −1.13 log, the Log average [1, 14] was 2.88 TCID50 Log10/mL and the “TCID50 Log10/mL” value [1, 14] was 3.25 TCID50 Log10/mL and 2.50 TCID50 Log10/mL. For the same compound, the “TCID50 Log10/mL” value ([1]; initial run (Day 1), PCA on wire mesh, 10 min incubation) was 3.50 TCID50 Log10/mL and 3.25 TCID50 Log10/mL, the solubility in water [2] was “approximately 10 mg/ml” and the “Log Reduction to Virus Controls” value [3, 15] was 2.45. The “Percent Log Reduction” value [3, 15] was 99.65%, the “Average Log10 TCID50” value [3, 16] was 2.10 and the “Average TCID50” value [3, 16] was 182.4589. For the same compound, the “” value [3, 16] was 0.03162 and 0.05012 and 0.3162, the “Log10 TCID50” value [3, 16] was 2.50 and 2.30 and 1.50 and the TCID50 [3, 16] was 316.2278 and 199.5262 and 31.62. The “Log Reduction to Virus Controls” value [3, 17] was 3.94, the “Percent Log Reduction” value [3, 17] was 99.99% and the “Average Log10 TCID50” value ([3]; plastic coupon coated with PCA) was 1.91. The “Average TCID50” value ([3]; plastic coupon coated with PCA) was 88, the “” value ([3]; plastic coupon coated with PCA) was 0.1995 and 0.07943 and 0.1136 and the “Log10 TCID50” value ([3]; plastic coupon coated with PCA) was 1.70 and 2.10 and 1.94. The TCID50 ([3]; plastic coupon coated with PCA) was 50.12 and 125.8925 and 87.99, the “Log Reduction to Virus Controls” value [3, 18] was 2.93 and the “Percent Log Reduction” value [3, 18] was 99.88%. The “Average Log10 TCID50” value [3, 19] was 2.37, the “Average TCID50” value [3, 19] was 298.9493 and the “” value [3, 19] was 0.01995 and 0.1259 and 0.03162. For the same compound, the “Log10 TCID50” value [3, 19] was 2.70 and 1.90 and 2.50, the TCID50 [3, 19] was 501.1872 and 79.43 and 316.2278 and the LD50 [4] was 800 mg/kg.
